In patent publication US20100130604A1, “USE OF ROSMARINIC ACID IN MANUFACTURE OF MEDICAMENTS FOR TREATING OR PREVENTING HEPATIC AND RENAL DISEASES” (SHANGDONG LUYE NATURAL DRUG RESEARCH AND DEVELOPMENT CO., …, priority 2006, published 2010):

What was measured:
Type in all cases: in vivo, Sprague Dawley rats
[1] = system: renal interstitial fibrosis in rats; experiment: Renal interstitial fibrosis in rats with unilateral urethral obstruction; details: day 10
Method: 130 rats were randomly divided into 13 groups, namely, a sham operation group, a model group, benazapril p.o. Group at 10 mg/kg, RA i.v. groups at 2.5 mg/kg, 5 mg/kg, 25 mg/kg, 75 mg/kg, and 150 mg/kg of RA, and RA p.o. groups at 2.5 mg/kg, 5 mg/kg, 25 mg/kg, 150 mg/kg, and 300 mg/kg of RA. The animals were acclimated for a week before they were all anaesthetised with an i.p. dose of 10% chloral hydrate at 3.0mL/kg and placed on the operating table in right lateral position. The rats were shaved and the operating area was disinfected using iodine tincture and 75% ethanol. The left urethra was exposed and isolated after a left lateral incision was made on the abdominal area and skin, muscles and all other layers of the abdominal wall were incised sequentially. In the sham group, the left urethra was only isolated without being ligated or cut off. In all other animals, the left urethra was ligated with No. 4 suture and obstructed followed by closure of the abdominal wall layer by layer. The animals were anaesthetised again with 10% chloral hydrate 10 days later, blood was collected and serum was separated to determine FN levels. The left kidney was removed after thorough rinsing and then fixed in 4% paraformaldehyde buffer. HYP level was determined according to instructions provided with the kit.

[2] = system: rats with diabetic nephropathy; experiment: Diabetic nephropathy in rats (left nephrectomy + streptozocin); details: p.o. 10 mg/kg; for creatinine: serum
Method: After 1 week-long acclimation period, animals were anaesthetised with 10% chloral hydrate (0.35 mL/100 g, i.p.) and nephrectomy was exercised to the left kidney. One week later, a single dose of 1% of streptozocin solution was i.v. injected to all animals at 60 mg/kg. After 72h, blood was collected from eyepit to test blood glucose level with the above-mentioned kit. The model was considered successful when blood glucose level >16.7 mmol/L. When the model is established, 130 rats were randomly divided into 13 groups, with 10 animals in each group, namely, a normal control group, a model group, benzanapril p.o. Group at 10 mg/kg, RA i.v. groups at 2.5 mg/kg, 5 mg/kg, 25 mg/kg, 75 mg/kg, and 150 mg/kg of RA, and RA p.o. groups at 5 mg/kg, 10 mg/kg, 50 mg/kg, 150 mg/kg, and 300 mg/kg of RA. The drugs were administered once every day. Blood was collected from eyepit at week 8 and week 16 to determine serum levels of creatinine and urea nitrogen. Urinary protein excretion within 24 hours was also studied. The animals were sacrificed 24 hours after the last dose and kidney removed for histopathological examination.

CRF rats [3] = experiment: CRF induced by 5/6 nephrectomy in rats; details: 8 weeks; p.o. 12 mg/kg
Method: 130 rats were randomly divided into 13 groups, with 10 animals in each group, namely, a normal control group, a model group, methylprednisolone p.o. Group at 12 mg/kg, RA i.v. groups at 2.5 mg/kg, 5 mg/kg, 25 mg/kg, 75 mg/kg, and 150 mg/kg of RA, and RA p.o. groups at 5 mg/kg, 10 mg/kg, 50 mg/kg, 150 mg/kg, and 300 mg/kg of RA. Apart from the normal control group, all other rats were induced to CRF by cutting off 5/6 of the kidneys. 2/3 of the left kidney was removed in the first operation, and one week later the right kidney in the second operation. Dosing started one week after the second operation via p.o. or i.p. routes. Blood was collected from eyepit at week 4 and week 8 to determine creatinine and urea nitrogen levels in sera. 5 animals in each group were sacrificed at week 4 and […] were sacrificed at the end of the study. Pathological changes in renal function were observed through HE and PAS staining of histopathological sections.

CRF rats [4] = experiment: CRF induced by 5/6 nephrectomy in rats; details: p.o. 12 mg/kg
hepatofibrosis in rats = experiment: CCl4-induced hepatofibrosis in chronic hepatitis in rats; details: hepatic; 8 mg/kg, 6 weeks
Method: 120 rats were randomly divided into 12 groups, with 10 in each group, namely, a normal control group, a model group, […] Apart from the normal control group, all rats were s.c. injected 0.3 ml of 40% solution of CC14 in oil per 100 g of body weight once every 3 days for 6 weeks. Animals in the normal control group were s.c. injected 0.3 ml/100 g body weight of oil vehicle following the same schedule as the experimental groups. First dose was doubled for all animals. Six weeks later, drugs were continuously administered to animals in each group for 6 weeks. After the administration was completed, all animals were anaesthetised with i.p. injection of 20% ethyl carbamate solution (Beijing Tongxian District Yucai Fine Chemicals). Blood was collected from abdominal aorta. Hepatic lobule tissue was removed, part of which was fixed with 10% neutral foinialin solution and made into wax blocks within 24-48 hours. […] Serum HA, LN, Pc III levels and hepatic HYP level were determined according to the respective kit instructions.

`CCOC(=O)[C@H](CCc1ccccc1)N[C@H]1CCc2ccccc2N(CC(=O)O)C1=O` [Benazapril, reference compound] was tested, and the HYP ([1]; left kidney, benazapril p.o. 10 mg/kg) was 500 ± 132 µg/g, the FN ([1]; serum, p.o. 10 mg/kg) was 17.0 ± 3.6 mg/L and the “24 h urinary protein excretion” value ([2]; 8 weeks) was 19.29 ± 2.11 mg/24 h. The Blood glucose ([2]; 8 weeks) was 21.11 ± 4.55 mmol/L, the Serum urea nitrogen ([2]; 8 weeks) was 9.21 ± 1.62 mg/dL and the “24 h urinary protein excretion” value ([2]; 16 weeks) was 61.76 ± 6.75 mg/24 h. It also gave a Blood glucose ([2]; 16 weeks) of 22.11 ± 4.55 mmol/L, a Serum urea nitrogen ([2]; 16 weeks) of 18.21 ± 3.25 mg/dL and a creatinine ([2]; 8 weeks) of 0.57 ± 0.07 mg/dL. It also gave a creatinine ([2]; 16 weeks) of 1.15 ± 0.13 mg/dL.

`C[C@H]1C[C@@H]2[C@H]([C@@H](O)C[C@@]3(C)[C@H]2CC[C@]3(O)C(=O)CO)[C@@]2(C)C=CC(=O)C=C12` [Methylprednisolone, reference compound] showed a Serum urea nitrogen (CRF rats [3]) of 18.21 ± 4.25 mg/dL, a Serum creatinine (CRF rats [4]; 4 weeks) of 1.33 ± 0.13 mg/dL and a Serum urea nitrogen (CRF rats [4]; 4 weeks) of 15.21 ± 3.25 mg/dL. For the same molecule, the Serum creatinine (CRF rats [4]; 8 weeks) was 1.25 ± 0.17 mg/dL.

With `CN(CCOc1ccc(CC2SC(=O)NC2=O)cc1)c1ccccn1` (stereo not drawn) [Rosiglitazone, reference compound] the HYP (hepatofibrosis in rats) was 1259 ± 153 µg/L.
